{"source": "paper PMC5218480", "about": "(PLoS ONE, 2017)", "tested_on": "MV-4-11 cells", "test": "Gene expression microarray analysis (Affymetrix PrimeView) and GSEA", "format": "cell-based, human", "design": "RFU PODN (11730768_x_at) / Fold change /veh PODN (11730768_x_at) / RFU LINC00158 (11744669_a_at) / Fold change /veh LINC00158 (11744669_a_at) / RFU DUSP10 (11751237_a_at) / Fold change /veh DUSP10 (11751237_a_at) / RFU ID3 (11757404_x_at) / Fold change /veh ID3 (11757404_x_at) / RFU PLEKHG5 (11737974_s_at) / Fold change /veh PLEKHG5 (11737974_s_at) / RFU LRRC4B (11730491_at) / Fold change /veh LRRC4B (11730491_at) / RFU GIMAP4 (11747438_a_at) / Fold change /veh GIMAP4 (11747438_a_at) / RFU KRT8 (11758183_x_at) / Fold change /veh KRT8 (11758183_x_at) / RFU CNN1 (11734310_a_at) / Fold change /veh CNN1 (11734310_a_at) / RFU VPS37D (11726825_at) / Fold change /veh VPS37D (11726825_at) / RFU C10orf10 (11716522_x_at) / Fold change /veh C10orf10 (11716522_x_at) / RFU KIR2DL2 /// KIR2DL4 /// KIR2DL5A /// KIR2DL5B /// KIR2DS1 /// KIR2DS2 /// KIR2DS3 /// KIR2DS4 /// KIR3DL3 /// KIR3DL3 /// KIR3DS1 (11738374_at) / Fold change /veh KIR2DL2 /// KIR2DL4 /// KIR2DL5A /// KIR2DL5B /// KIR2DS1 /// KIR2DS2 /// KIR2DS3 /// KIR2DS4 /// KIR3DL3 /// KIR3DL3 /// KIR3DS1 (11738374_at) / RFU C1QL1 (11718748_at) / Fold change /veh C1QL1 (11718748_at) / RFU TMPRSS4 (11747572_a_at) / Fold change /veh TMPRSS4 (11747572_a_at) / RFU HAMP (11756126_x_at) / Fold change /veh HAMP (11756126_x_at) / RFU RNFT2 (11725882_a_at) / Fold change /veh RNFT2 (11725882_a_at) / RFU NR4A2 (11747474_a_at) / Fold change /veh NR4A2 (11747474_a_at) / RFU ABCC12 (11746883_a_at) / Fold change /veh ABCC12 (11746883_a_at) / RFU TMEM136 (11760407_x_at) / Fold change /veh TMEM136 (11760407_x_at) / RFU CLDN22 /// WWC2 (11732394_at) / Fold change /veh CLDN22 /// WWC2 (11732394_at) / RFU HLA-DPB1 (11760878_x_at) / Fold change /veh HLA-DPB1 (11760878_x_at) / RFU SPINT1 (11716480_a_at) / Fold change /veh SPINT1 (11716480_a_at) / RFU GAP43 (11754022_s_at) / Fold change /veh GAP43 (11754022_s_at) / RFU A4GNT (11735810_at) / Fold change /veh A4GNT (11735810_at) / RFU PRB3 (11715151_x_at) / Fold change /veh PRB3 (11715151_x_at) / RFU TUBB4B (11761932_at) / Fold change /veh TUBB4B (11761932_at) / RFU CAPN14 (11732068_a_at) / Fold change /veh CAPN14 (11732068_a_at) / RFU TMCC2 (11721928_a_at) / Fold change /veh TMCC2 (11721928_a_at) / RFU IRGQ (11745062_a_at) / Fold change /veh IRGQ (11745062_a_at) / RFU FAM174B (11720279_a_at) / Fold change /veh FAM174B (11720279_a_at) / RFU TMPRSS4 (11748680_a_at) / Fold change /veh TMPRSS4 (11748680_a_at) / RFU FAM212B (11763350_a_at) / Fold change /veh FAM212B (11763350_a_at) / RFU PLEKHG5 (11743358_a_at) / Fold change /veh PLEKHG5 (11743358_a_at) / RFU ZSCAN30 (11745921_a_at) / Fold change /veh ZSCAN30 (11745921_a_at) / RFU CMKLR1 (11741424_a_at) / Fold change /veh CMKLR1 (11741424_a_at) / RFU LOC101060620 /// MAPK8IP1 (11723275_at) / Fold change /veh LOC101060620 /// MAPK8IP1 (11723275_at) / RFU SPTSSB (11747773_x_at) / Fold change /veh SPTSSB (11747773_x_at) / RFU PRSS12 (11739890_at) / Fold change /veh PRSS12 (11739890_at) / RFU BIN1 (11741810_x_at) / Fold change /veh BIN1 (11741810_x_at) / RFU WNT11 (11732464_a_at) / Fold change /veh WNT11 (11732464_a_at) / RFU C10orf10 (11716521_a_at) / Fold change /veh C10orf10 (11716521_a_at) / RFU C5orf56 (11738089_at) / Fold change /veh C5orf56 (11738089_at) / RFU CYB561 (11721691_x_at) / Fold change /veh CYB561 (11721691_x_at) / RFU ANKRD19P (11752326_a_at) / Fold change /veh ANKRD19P (11752326_a_at) / RFU OR2T12 /// OR2T33 /// OR2T8 (11738714_s_at) / Fold change /veh OR2T12 /// OR2T33 /// OR2T8 (11738714_s_at) / RFU VCAN (11748164_a_at) / Fold change /veh VCAN (11748164_a_at) / RFU JSRP1 (11732532_at) / Fold change /veh JSRP1 (11732532_at) / RFU KRTAP10-11 (11738290_x_at) / Fold change /veh KRTAP10-11 (11738290_x_at) / RFU MYO3A (11730013_a_at) / Fold change /veh MYO3A (11730013_a_at) / RFU EBF3 (11725865_a_at) / Fold change /veh EBF3 (11725865_a_at) / RFU CAMK2N1 (11719241_x_at) / Fold change /veh CAMK2N1 (11719241_x_at) / RFU C5orf56 (11738088_a_at) / Fold change /veh C5orf56 (11738088_a_at) / RFU OLFML3 (11715873_a_at) / Fold change /veh OLFML3 (11715873_a_at) / RFU LOC100653217 /// NTM (11731650_a_at) / Fold change /veh LOC100653217 /// NTM (11731650_a_at) / RFU MAPK11 (11762145_a_at) / Fold change /veh MAPK11 (11762145_a_at) / RFU FIZ1 (11724087_x_at) / Fold change /veh FIZ1 (11724087_x_at) / RFU OASL (11726364_x_at) / Fold change /veh OASL (11726364_x_at) / RFU SOX15 (11748057_x_at) / Fold change /veh SOX15 (11748057_x_at) / RFU CD79A (11719716_a_at) / Fold change /veh CD79A (11719716_a_at) / RFU HIST1H1D (11736915_at) / Fold change /veh HIST1H1D (11736915_at) / RFU CASKIN2 (11723855_a_at) / Fold change /veh CASKIN2 (11723855_a_at) / RFU LOC730098 (11760151_x_at) / Fold change /veh LOC730098 (11760151_x_at) / RFU OR4N2 (11742367_at) / Fold change /veh OR4N2 (11742367_at) / RFU PRRT2 (11749266_a_at) / Fold change /veh PRRT2 (11749266_a_at) / RFU SNX32 (11753110_a_at) / Fold change /veh SNX32 (11753110_a_at) / RFU CDHR5 (11726645_a_at) / Fold change /veh CDHR5 (11726645_a_at) / RFU RCAN1 (11760418_a_at) / Fold change /veh RCAN1 (11760418_a_at) / RFU FAM167A (11723789_a_at) / Fold change /veh FAM167A (11723789_a_at) / RFU FAM26E (11764081_at) / Fold change /veh FAM26E (11764081_at) / RFU ISYNA1 (11749810_s_at) / Fold change /veh ISYNA1 (11749810_s_at) / RFU ACY1 (11761880_at) / Fold change /veh ACY1 (11761880_at) / RFU 11764098_at / Fold change /veh 11764098_at / RFU SAMD14 (11745864_x_at) / Fold change /veh SAMD14 (11745864_x_at) / RFU NPB (11741838_a_at) / Fold change /veh NPB (11741838_a_at) / RFU TMPRSS6 (11731388_a_at) / Fold change /veh TMPRSS6 (11731388_a_at) / RFU KRTAP10-2 (11738614_at) / Fold change /veh KRTAP10-2 (11738614_at) / RFU ARHGAP8 /// PRR5-ARHGAP8 (11727945_x_at) / Fold change /veh ARHGAP8 /// PRR5-ARHGAP8 (11727945_x_at) / RFU KRTAP5-7 /// NADSYN1 (11734609_at) / Fold change /veh KRTAP5-7 /// NADSYN1 (11734609_at) / RFU RASL12 (11751679_a_at) / Fold change /veh RASL12 (11751679_a_at) / RFU CDKN2B (11736163_a_at) / Fold change /veh CDKN2B (11736163_a_at) / RFU PRF1 (11729649_at) / Fold change /veh PRF1 (11729649_at) / RFU, ZNF638 /// ZNF638-IT1 / Fold change vs veh, ZNF638 /// ZNF638-IT1 / RFU, PANK3 / Fold change vs veh, PANK3 / RFU, SH3YL1 / Fold change vs veh, SH3YL1 / RFU, ZEB2 / Fold change vs veh, ZEB2 / RFU, NRIP1 / Fold change vs veh, NRIP1 / RFU, PTTG1IP / Fold change vs veh, PTTG1IP / RFU, CAPN2 / Fold change vs veh, CAPN2 / RFU, MED14 / Fold change vs veh, MED14 / RFU, SNORA58 / Fold change vs veh, SNORA58 / RFU, C1orf63 / Fold change vs veh, C1orf63 / RFU, LRRFIP1 / Fold change vs veh, LRRFIP1 / RFU, NDUFAF7 / Fold change vs veh, NDUFAF7 / RFU, SLC12A2 / Fold change vs veh, SLC12A2 / RFU, IBTK / Fold change vs veh, IBTK / RFU, ESF1 / Fold change vs veh, ESF1 / Fold change vs veh, TMEM50B / RFU, TAOK1 / Fold change vs veh, TAOK1 / RFU, ACBD3 / Fold change vs veh, ACBD3 / RFU, TMA16 / Fold change vs veh, TMA16 / RFU, RWDD3 / Fold change vs veh, RWDD3 / RFU, BCAT1 / Fold change vs veh, BCAT1 / RFU, EDEM3 / Fold change vs veh, EDEM3 / RFU, TMEM33 / Fold change vs veh, TMEM33 / RFU, WDR75 / Fold change vs veh, WDR75 / RFU, AHCTF1 / Fold change vs veh, AHCTF1 / RFU, TFRC / Fold change vs veh, TFRC / RFU, ZDHHC17 / Fold change vs veh, ZDHHC17 / RFU, NOM1 / Fold change vs veh, NOM1 / RFU, ARL8B / Fold change vs veh, ARL8B / RFU, ZBTB11 / Fold change vs veh, ZBTB11 / RFU, TAMM41 / Fold change vs veh, TAMM41 / RFU, KIAA1704 /// LOC100996395 / Fold change vs veh, KIAA1704 /// LOC100996395 / RFU, ING1 / Fold change vs veh, ING1 / RFU, TRMT61B / Fold change vs veh, TRMT61B / RFU, FUBP3 / Fold change vs veh, FUBP3 / RFU, TP53 / Fold change vs veh, TP53 / RFU, TNKS2 / Fold change vs veh, TNKS2 / RFU, ZFP14 / Fold change vs veh, ZFP14 / RFU, ACTR2 / Fold change vs veh, ACTR2 / RFU, PPP3R1 / Fold change vs veh, PPP3R1 / RFU, PIK3R1 / Fold change vs veh, PIK3R1 / RFU, HNRNPA1 / Fold change vs veh, HNRNPA1 / RFU, RNF170 / Fold change vs veh, RNF170 / RFU, ZNF28 / Fold change vs veh, ZNF28 / RFU, RNGTT / Fold change vs veh, RNGTT / RFU, OGT / Fold change vs veh, OGT / RFU, BRD1 / Fold change vs veh, BRD1 / RFU, MARS / Fold change vs veh, MARS / RFU, ZNF655 / Fold change vs veh, ZNF655 / RFU, FAHD1 / Fold change vs veh, FAHD1 / RFU, BDP1 / Fold change vs veh, BDP1 / RFU, LRRCC1 / Fold change vs veh, LRRCC1 / RFU, ARID1A / Fold change vs veh, ARID1A / RFU, ZNF146 / Fold change vs veh, ZNF146 / RFU, ZNF330 / Fold change vs veh, ZNF330 / RFU, GPN3 / Fold change vs veh, GPN3 / RFU, C9orf123 / Fold change vs veh, C9orf123 / RFU, N4BP2L2 / Fold change vs veh, N4BP2L2 / RFU, ARFIP1 / Fold change vs veh, ARFIP1 / RFU, FAM179B / Fold change vs veh, FAM179B / RFU, BCL10 / Fold change vs veh, BCL10 / RFU, UHRF1BP1L / Fold change vs veh, UHRF1BP1L / RFU, BET1 / Fold change vs veh, BET1 / RFU, CNOT2 / Fold change vs veh, CNOT2 / RFU, ZNF268 / Fold change vs veh, ZNF268 / Fold change vs veh, ZNF507 / RFU, DGCR2 / Fold change vs veh, DGCR2 / RFU, WDSUB1 / Fold change vs veh, WDSUB1 / Fold change vs veh, HSP90B1 /// MIR3652 / RFU, ADSS / Fold change vs veh, ADSS / RFU, GK / Fold change vs veh, GK / RFU, ZNF148 / Fold change vs veh, ZNF148 / RFU, TAF9 / Fold change vs veh, TAF9 / RFU, SLC1A5 / Fold change vs veh, SLC1A5 / RFU, SLMO2 / Fold change vs veh, SLMO2 / RFU, ABCC4 / Fold change vs veh, ABCC4 / RFU, LOC101060439 /// RAP1B / Fold change vs veh, LOC101060439 /// RAP1B / RFU, RFX7 / Fold change vs veh, RFX7 / RFU, GTPBP10 / Fold change vs veh, GTPBP10 / RFU, CNEP1R1 / Fold change vs veh, CNEP1R1 / RFU, BIVM-ERCC5 /// ERCC5 / Fold change vs veh, BIVM-ERCC5 /// ERCC5 / RFU, ILF3 / Fold change vs veh, ILF3 / RFU 11762660_at / Fold change /veh 11762660_at / RFU VCAN (11757783_s_at) / Fold change /veh VCAN (11757783_s_at) / RFU DDX43 (11728927_at) / Fold change /veh DDX43 (11728927_at) / RFU KRT8 (11758188_x_at) / Fold change /veh KRT8 (11758188_x_at) / RFU NKD1 (11759106_at) / Fold change /veh NKD1 (11759106_at) / RFU SRD5A1 (11742802_a_at) / Fold change /veh SRD5A1 (11742802_a_at) / RFU TPSAB1 /// TPSB2 (11721975_s_at) / Fold change /veh TPSAB1 /// TPSB2 (11721975_s_at) / RFU GSTM3 (11746129_a_at) / Fold change /veh GSTM3 (11746129_a_at) / RFU IL23R (11737362_x_at) / Fold change /veh IL23R (11737362_x_at) / RFU TMEM51 (11727254_a_at) / Fold change /veh TMEM51 (11727254_a_at) / RFU PIWIL2 (11732686_x_at) / Fold change /veh PIWIL2 (11732686_x_at) / RFU ORM1 (11744905_x_at) / Fold change /veh ORM1 (11744905_x_at) / RFU CCDC152 (11743942_at) / Fold change /veh CCDC152 (11743942_at) / RFU ECM1 (11717891_a_at) / Fold change /veh ECM1 (11717891_a_at) / RFU IL23R (11748794_a_at) / Fold change /veh IL23R (11748794_a_at) / RFU TNFAIP8L3 (11732012_x_at) / Fold change /veh TNFAIP8L3 (11732012_x_at) / RFU MBOAT4 (11741988_at) / Fold change /veh MBOAT4 (11741988_at) / RFU 11764193_at / Fold change /veh 11764193_at / RFU TMEM53 (11763286_at) / Fold change /veh TMEM53 (11763286_at) / RFU MAGEB2 (11727129_at) / Fold change /veh MAGEB2 (11727129_at) / RFU TMEM200A (11744735_a_at) / Fold change /veh TMEM200A (11744735_a_at) / RFU CCDC152 (11751479_a_at) / Fold change /veh CCDC152 (11751479_a_at) / RFU FAM211A (11726209_a_at) / Fold change /veh FAM211A (11726209_a_at) / RFU RGS16 (11746705_a_at) / Fold change /veh RGS16 (11746705_a_at) / RFU VCAN (11755009_s_at) / Fold change /veh VCAN (11755009_s_at) / RFU RHOB (11743442_s_at) / Fold change /veh RHOB (11743442_s_at) / RFU RGS16 (11720943_a_at) / Fold change /veh RGS16 (11720943_a_at) / RFU RGS16 (11720944_at) / Fold change /veh RGS16 (11720944_at) / RFU, VPS4B / Fold change vs veh, VPS4B / RFU, CREB1 / Fold change vs veh, CREB1 / RFU, DNAJC13 / Fold change vs veh, DNAJC13 / RFU, GNAQ / Fold change vs veh, GNAQ / RFU, CDK5R1 / Fold change vs veh, CDK5R1 / RFU, ZRANB3 / Fold change vs veh, ZRANB3 / RFU, CUL4A / Fold change vs veh, CUL4A / RFU, CCNY / Fold change vs veh, CCNY / RFU, UFL1 / Fold change vs veh, UFL1 / RFU, COG3 / Fold change vs veh, COG3 / RFU, DIAPH2 / Fold change vs veh, DIAPH2 / RFU, SKA2 / Fold change vs veh, SKA2 / RFU, AFF3 / Fold change vs veh, AFF3 / RFU, LMF1 / Fold change vs veh, LMF1 / RFU, IPO11 / Fold change vs veh, IPO11 / RFU, DFFB / Fold change vs veh, DFFB / RFU, FOXP1 / Fold change vs veh, FOXP1 / RFU, CARD8 / Fold change vs veh, CARD8 / RFU, STRN3 / Fold change vs veh, STRN3 / RFU, ADK / Fold change vs veh, ADK / RFU, RASSF2 / Fold change vs veh, RASSF2 / RFU, WIPF1 / Fold change vs veh, WIPF1 / RFU, LARP1B / Fold change vs veh, LARP1B / RFU, RASA1 / Fold change vs veh, RASA1 / RFU, RB1 / Fold change vs veh, RB1 / RFU, PPFIA1 / Fold change vs veh, PPFIA1 / RFU, MAT2A / Fold change vs veh, MAT2A / RFU, CCT5 / Fold change vs veh, CCT5 / RFU, WDR92 / Fold change vs veh, WDR92 / RFU, CUX1 / Fold change vs veh, CUX1 / RFU, TTC7A / Fold change vs veh, TTC7A / RFU, TMEM135 / Fold change vs veh, TMEM135 / RFU, DEPTOR / Fold change vs veh, DEPTOR / RFU, CPM / Fold change vs veh, CPM / RFU, DNAJB6 / Fold change vs veh, DNAJB6 / RFU, CACNA2D3 / Fold change vs veh, CACNA2D3 / RFU, DTX4 / Fold change vs veh, DTX4 / RFU, TFCP2 / Fold change vs veh, TFCP2 / RFU, GMCL1 /// GMCL1P1 / Fold change vs veh, GMCL1 /// GMCL1P1 / RFU, AEBP2 / Fold change vs veh, AEBP2 / RFU, SNHG1 /// SNORD22 /// SNORD25 /// SNORD26 /// SNORD27 /// SNORD28 /// SNORD29 /// SNORD31 / Fold change vs veh, SNHG1 /// SNORD22 /// SNORD25 /// SNORD26 /// SNORD27 /// SNORD28 /// SNORD29 /// SNORD31 / Fold change (Aza/veh), C12orf56 (ProbeSet 11735607_a_at) / Fold change (ACY-1035/veh), C12orf56 (ProbeSet 11735607_a_at) / Fold change (Aza/veh), FGFR1OP (ProbeSet 11751329_s_at) / Fold change (ACY-1035/veh), FGFR1OP (ProbeSet 11751329_s_at) / Fold change (Aza/veh), VPS36 (ProbeSet 11739960_a_at) / Fold change (ACY-1035/veh), VPS36 (ProbeSet 11739960_a_at) / RFU SYPL1 (11715823_x_at) / Fold change /veh SYPL1 (11715823_x_at) / RFU IGFBP7 (11715501_s_at) / Fold change /veh IGFBP7 (11715501_s_at) / RFU REEP3 (11722064_at) / Fold change /veh REEP3 (11722064_at) / RFU IGLL1 (11728026_x_at) / Fold change /veh IGLL1 (11728026_x_at): dose or concentration left out as unconfirmed", "details": "MV-4-11 cells, 48 hours", "data": [{"smiles": "Nc1ncn([C@@H]2O[C@H](CO)[C@@H](O)[C@H]2O)c(=O)n1", "note": "[azacitidine]", "values": [{"measurement": "RFU KRTAP10-2 (11738614_at)", "value": 10.93, "unit": "RFU"}]}]}
